Target: T1, ADRA2A (Homo sapiens, UniProt P08913)
T1 construct: purchased Promega (in-house HiBiT-GPCR construct library, NanoBRET)
T1 sequence (P08913 1-465): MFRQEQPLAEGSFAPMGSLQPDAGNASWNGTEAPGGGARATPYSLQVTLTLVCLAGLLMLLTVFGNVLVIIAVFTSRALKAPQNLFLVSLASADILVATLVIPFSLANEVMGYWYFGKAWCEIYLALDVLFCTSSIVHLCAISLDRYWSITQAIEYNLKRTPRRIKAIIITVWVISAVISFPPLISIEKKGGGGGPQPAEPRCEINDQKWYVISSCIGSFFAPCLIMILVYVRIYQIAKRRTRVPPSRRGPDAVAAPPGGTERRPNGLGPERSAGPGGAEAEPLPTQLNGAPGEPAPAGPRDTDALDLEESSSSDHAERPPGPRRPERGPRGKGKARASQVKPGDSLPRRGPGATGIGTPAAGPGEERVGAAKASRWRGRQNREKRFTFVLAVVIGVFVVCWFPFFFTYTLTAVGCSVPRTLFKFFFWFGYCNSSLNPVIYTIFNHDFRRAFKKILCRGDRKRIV
Assay: NanoBRET screen HiBiT-ADRA2A in HEK293
Format: binding
Protocol: Each tracer candidate was screened across the entire library of HiBiT-GPCR constructs using NanoBRET as the detection modality. As depicted in Figure 4A, the specificity of interactions was evaluated through decrease in BRET due to competitive displacement of a bound tracer by excess parental compound. Each tracer was analyzed for binding to each HiBiT-GPCR fusion in the absence and in the presence of competing parental compound. Briefly, HEK293 cells were transfected with HiBiT-GPCR constructs diluted into promoterless DNA to reduce expression and maximize translocation to the cell surface. Each tracer candidate was then screened at concentrations of 1 μM and 0.1 μM across cells expressing these fusions. Cells were treated for 1.5 h with tracer either alone or in the presence of 20 μM competing parental compound (i.e., control). BRET was measured upon addition of purified LgBiT and subsequent complementation with HiBiT genetically fused to a GPCR. The specificity of interactions was assessed through a decrease in BRET signal due to competitive displacement of the bound tracer. To further gauge the robustness of these interactions, the fold response over the control (i.e., BRETtracer/BRETcontrol) was calculated. We chose a 1.5-fold response, which translates to ≥7-fold signal over noise as the minimal threshold required to score an interaction as positive.
HiBiT-GPCR DNA constructs were diluted in 10 mM Tris pH 8 to a final concentration of 0.01 μg/μL, arrayed in 96-well plates and stored at −20 °C. For transfection, HEK293 cells were suspended in Opti-MEM (without phenol red) supplemented with 2% fetal bovine serum (Seradigm) and 100 units/mL penicillin–streptomycin (Gibco) at a final concentration of 220,000 cells/mL and dispensed into white 96-well plates at 90 μL/well. Subsequent transfections and screens were carried using an Agilent Bravo Automated Liquid Handling Platform. First, the 96-well HiBiT DNA arrays were diluted 25-fold in Opti-MEM (without serum or phenol red) to a final concentration of 0.0004 μg/μL and 20 μL of the diluted DNAs were transferred into new 96-well plates. Next, promoterless carrier DNA (1 μg/μL) was diluted 25-fold (0.04 μg/μL) and then dispensed into the diluted arrays at 20 μL/well. Following brief mixing, Viafect transfection reagent (Promega) diluted 16-fold into Opti-MEM was dispensed into the plates at 40 μL/well. After mixing by pipetting, plates were incubated for 10 min on the pipetting station deck. The DNA-transfection reagent complexes were then added to plates containing cells. To facilitate the screen, 10 μL of DNA-transfection reagent complexes were added in duplicates to the top 4 and bottom 4 rows, resulting in two identical 48-well arrays per plate. Plates with transfected cells were incubated for 18–20 h at 37 °C/5% CO2. A screen of each tracer across the entire library using two different concentrations requires duplicate plates of transfected cells. Depending on the number of tracers being screened, transfections can be scaled up using the same ratios. The next day, for each tracer, four 20× screening solutions in tracer dilution buffer (Promega) were prepared: two duplicates at final concentration of 20 μM and two duplicates at a final concentration of 2 μM. […] The four resulting solutions were diluted 4-fold in Opti-MEM without serum or phenol red to generate 5× solutions (5 µM and 0.5 µM tracer +/− 100 μM competing compound). To screen the library, a BioTek MultiFlo FX liquid dispenser was used to dispense 22.5 µL of tracer solution to the top 4 rows and 22.5 µL tracer + competing compound solution to the 4 bottom rows. Plates were briefly mixed on an orbital shaker and incubated for 1.5 h at room temperature. […] Plates were briefly mixed on an orbital shaker and incubated for 15 min to allow complementation.

CCOC(=O)c1cc(C#N)c(N2CCC(C(=O)NS(=O)(=O)Cc3ccccc3/C=C/C(=O)NCCNC(=O)CCc3ccc4n3[B-](F)(F)[N+]3=C(c5ccc[nH]5)C=CC3=C4)CC2)nc1C [AZD1283-1-NB590]
NanoBRET Fold Response (ADRA2A, 0.1μM): 1.04
NanoBRET Fold Response (ADRA2A, 1μM): 1.13

N#CN/C(=N\CCNC(=O)c1ccc(N)cc1)NCCCOc1cccc(CN2CCCCC2)c1 [Aminopotentidine (unmodified)]
NanoBRET Fold Response (ADRA2A, other tracers/Aminopotentidine (unmodified), 0.1μM): 1.01
NanoBRET Fold Response (ADRA2A, other tracers/Aminopotentidine (unmodified), 1μM): 1.67

N#CN=C(NCCCOc1cccc(CN2CCCCC2)c1)NCCNC(=O)CCOCCOCCOCCOCCNC(=O)CCc1ccc2n1[B-](F)(F)[N+]1=C(c3ccc[nH]3)C=CC1=C2 [Aminopotentidine-2-NB590]
NanoBRET Fold Response (ADRA2A, tracer 0.1μM): 1.04
NanoBRET Fold Response (ADRA2A, tracer 1μM): 1.26

CN(C)CCC=C1c2ccccc2CCc2ccc(C(=O)NCCNC(=O)CCOCCOCCOCCOCCNC(=O)CCc3ccc4n3[B-](F)(F)[N+]3=C(c5ccc[nH]5)C=CC3=C4)cc21 [Amitriptyline-a-2-NB590]
NanoBRET Fold Response (tracer at 0.1μM): 1.03
NanoBRET Fold Response (tracer at 1μM): 1.12

CN(C)CCC=C1c2ccccc2CCc2ccc(C(=O)NCCNC(=O)CCOCCOCCOCCOCCNC(=O)CCc3ccc4n3[B-](F)(F)[N+]3=C(c5ccc[nH]5)C=CC3=C4)cc21 [Amitriptyline-b-2-NB590]
NanoBRET Fold Response (tracer at 0.1μM, listed as amitriptyline-b-2-NB590): 1.11
NanoBRET Fold Response (tracer at 1μM, listed as amitriptyline-b-2-NB590): 1.00

CN(CCC=C1c2ccccc2CCc2ccccc21)C(=O)CCOCCOCCOCCOCCNC(=O)CCc1ccc2n1[B-](F)(F)[N+]1=C(c3ccc[nH]3)C=CC1=C2 [Amitriptyline-e-2-NB590]
NanoBRET Fold Response (tracer at 1μM): 1.09

COc1ccc2c(n1)c(CCNC(C)=O)cn2CCNC(=O)CCc1ccc2n1[B-](F)(F)[N+]1=C(c3ccc[nH]3)C=CC1=C2 [Azamelatonin-1-NB590]
NanoBRET Fold Response (0.1μM tracer): 1.08
NanoBRET Fold Response (1μM tracer): 1.01

COc1ccc2[nH]c(-c3ccc(CNC(=O)CCOCCOCCOCCOCCNC(=O)CCc4ccc5n4[B-](F)(F)[N+]4=C(c6ccc[nH]6)C=CC4=C5)cc3)c(CCNC(C)=O)c2n1 [AzomelatoninICO9-2-NB590]
NanoBRET Fold Response (0.1μM tracer): 1.01
NanoBRET Fold Response (1μM tracer): 1.06

O=C(CCOCCOCCOCCOCCNC(=O)CCc1ccc2n1[B-](F)(F)[N+]1=C(c3ccc[nH]3)C=CC1=C2)NCCCN1CCN(C2=Nc3cc(Cl)ccc3Nc3ccccc32)CC1 [Clozapine-a-2-NB590]
NanoBRET Fold Response (ADRA2A, 0.1μM tracer): 1.27
NanoBRET Fold Response (ADRA2A, 1μM tracer): 1.78

O=C(CCOCCOCCOCCOCCNC(=O)CCc1ccc2n1[B-](F)(F)[N+]1=C(c3ccc[nH]3)C=CC1=C2)NCCCN1CCN(C2=Nc3ccccc3Oc3ccc(Cl)cc32)CC1 [Loxapine-a-2-NB590]
NanoBRET Fold Response (ADRA2A, tracer 0.1μM): 0.99
NanoBRET Fold Response (ADRA2A, tracer 1μM): 1.02

COc1ccccc1N1CCN(CCCCN2C(=O)c3ccc(CNC(=O)CCOCCOCCOCCOCCNC(=O)CCc4ccc5n4[B-](F)(F)[N+]4=C(c6ccc[nH]6)C=CC4=C5)cc3C2=O)CC1 [NAN-190-2-NB590]
NanoBRET Fold Response (ADRA2A, tracer 0.1μM): 2.17
NanoBRET Fold Response (ADRA2A, tracer 1μM): 3.08

COc1ccccc1N1CCN(CCCCN2C(=O)c3ccc(CNC(=O)CCOCCNC(=O)c4ccc(CNC(=O)CCc5ccc6n5[B-](F)(F)[N+]5=C(c7ccc[nH]7)C=CC5=C6)cc4)cc3C2=O)CC1 [NAN-190-3-NB590]
NanoBRET Fold Response (ADRA2A, tracer 0.1μM): 2.11
NanoBRET Fold Response (ADRA2A, tracer 1μM): 2.92

O=C(CCc1ccc2n1[B-](F)(F)[N+]1=C(c3ccc[nH]3)C=CC1=C2)NCc1ccc(C(=O)NCCOCCC(=O)N[C@@H]2CC[C@@]3(O)[C@H]4Cc5ccc(O)c6c5[C@@]3(CCN4CC3CC3)[C@H]2O6)cc1 [Naltrexone-3-NB590]
NanoBRET Fold Response (ADRA2A, tracer 0.1μM): 1.12
NanoBRET Fold Response (ADRA2A, tracer 1μM): 0.92

Cc1cc2c(s1)Nc1ccccc1N=C2N1CCN(CCCNC(=O)CCOCCOCCOCCOCCNC(=O)CCc2ccc3n2[B-](F)(F)[N+]2=C(c4ccc[nH]4)C=CC2=C3)CC1 [Olanzapine-a-2-NB590]
NanoBRET Fold Response (ADRA2A, tracer 0.1μM): 1.00
NanoBRET Fold Response (ADRA2A, tracer 1μM): 1.04

O=C(CCc1ccc2n1[B-](F)(F)[N+]1=C(c3ccc[nH]3)C=CC1=C2)NCc1ccc(C(=O)NCCOCCOCCNCC(O)COc2cccc3ccccc23)cc1 (stereo not drawn) [Propranolol-3-NB590]
NanoBRET Fold Response (ADRA2A, 0.1μM): 1.04
NanoBRET Fold Response (ADRA2A, 1μM): 1.06

O=C(CCc1ccc2n1[B-](F)(F)[N+]1=C(c3ccc[nH]3)C=CC1=C2)NCCOCCOCCNC(=O)OCCOCCN1CCN(C2=Nc3ccccc3Sc3ccccc32)CC1 [Quetiapine-a-2-NB590]
NanoBRET Fold Response (ADRA2A, tracer 0.1μM): 1.10
NanoBRET Fold Response (ADRA2A, tracer 1μM): 1.22

Cc1nc2n(c(=O)c1CCN1CCC(c3noc4cc(F)ccc34)CC1)CCCC2OC(=O)NCCOCCOCCOCCOCCNC(=O)CCc1ccc2n1[B-](F)(F)[N+]1=C(c3ccc[nH]3)C=CC1=C2 (stereo not drawn) [Risperidone-2-NB590]
NanoBRET Fold Response (ADRA2A, tracer 0.1μM): 1.29
NanoBRET Fold Response (ADRA2A, tracer 1μM): 2.34

CC(C)N(CC[C@H](c1ccccc1)c1cc(CCNC(=O)CCOCCOCCOCCOCCNC(=O)CCc2ccc3n2[B-](F)(F)[N+]2=C(c4ccc[nH]4)C=CC2=C3)ccc1O)C(C)C [Tolterodine-2-NB590]
NanoBRET Fold Response (ADRA2A, tracer 0.1μM): 1.00
NanoBRET Fold Response (ADRA2A, tracer 1μM): 1.02

CC(C)N(CC[C@H](c1ccccc1)c1cc(CCNC(=O)c2ccc(CNC(=O)CCc3ccc4n3[B-](F)(F)[N+]3=C(c5ccc[nH]5)C=CC3=C4)cc2)ccc1O)C(C)C [Tolterodine-BZ-NB590]
NanoBRET Fold Response (ADRA2A, tracer 0.1μM): 1.08
NanoBRET Fold Response (ADRA2A, tracer 1μM): 1.07

CCCn1c(=O)c2[nH]c(-c3ccc(OCC(=O)NCCNC(=O)CCOCCNC(=O)c4ccc(CNC(=O)CCc5ccc6n5[B-](F)(F)[N+]5=C(c7ccc[nH]7)C=CC5=C6)cc4)cc3)nc2n(CCC)c1=O [XAC-3-NB590]
NanoBRET Fold Response (ADRA2A, tracer 0.1μM): 0.97
NanoBRET Fold Response (ADRA2A, tracer 1μM): 1.11
